From publication PMC2229623 (The Journal of General Physiology, 2004)

Key:
CFTR [1] = target: T1, CFTR (Homo sapiens, UniProt P13569); test: Apical Cl− current in CFTR-expressing FRT cells; type: cell-based; conditions: for % inhibition at 50 μM: apical membrane Cl− current, FRT cells; for Ki: Ki is compound concentration giving 50% inhibition of apical membrane Cl− current in CFTR-expressing FRT cells
CFTR [2] = target: T1, CFTR; conditions: read-out: concentration giving 50% inhibition of CFTR Cl− channel function; intact cells, depending on cell type and membrane potential; ref Ma et al., 2002a; Taddei et al., 2004; cited from earlier work
CFTR [3] = type: in vivo; conditions: 100 μM in all solutions; mice
MDR-1 = MDR-1 (Homo sapiens, UniProt P08183); test: Rhodamine 123 uptake in cells overexpressing MDR-1; type: cell-based; conditions: 100 μM
Sequence of MDR-1 (P08183 whole entry): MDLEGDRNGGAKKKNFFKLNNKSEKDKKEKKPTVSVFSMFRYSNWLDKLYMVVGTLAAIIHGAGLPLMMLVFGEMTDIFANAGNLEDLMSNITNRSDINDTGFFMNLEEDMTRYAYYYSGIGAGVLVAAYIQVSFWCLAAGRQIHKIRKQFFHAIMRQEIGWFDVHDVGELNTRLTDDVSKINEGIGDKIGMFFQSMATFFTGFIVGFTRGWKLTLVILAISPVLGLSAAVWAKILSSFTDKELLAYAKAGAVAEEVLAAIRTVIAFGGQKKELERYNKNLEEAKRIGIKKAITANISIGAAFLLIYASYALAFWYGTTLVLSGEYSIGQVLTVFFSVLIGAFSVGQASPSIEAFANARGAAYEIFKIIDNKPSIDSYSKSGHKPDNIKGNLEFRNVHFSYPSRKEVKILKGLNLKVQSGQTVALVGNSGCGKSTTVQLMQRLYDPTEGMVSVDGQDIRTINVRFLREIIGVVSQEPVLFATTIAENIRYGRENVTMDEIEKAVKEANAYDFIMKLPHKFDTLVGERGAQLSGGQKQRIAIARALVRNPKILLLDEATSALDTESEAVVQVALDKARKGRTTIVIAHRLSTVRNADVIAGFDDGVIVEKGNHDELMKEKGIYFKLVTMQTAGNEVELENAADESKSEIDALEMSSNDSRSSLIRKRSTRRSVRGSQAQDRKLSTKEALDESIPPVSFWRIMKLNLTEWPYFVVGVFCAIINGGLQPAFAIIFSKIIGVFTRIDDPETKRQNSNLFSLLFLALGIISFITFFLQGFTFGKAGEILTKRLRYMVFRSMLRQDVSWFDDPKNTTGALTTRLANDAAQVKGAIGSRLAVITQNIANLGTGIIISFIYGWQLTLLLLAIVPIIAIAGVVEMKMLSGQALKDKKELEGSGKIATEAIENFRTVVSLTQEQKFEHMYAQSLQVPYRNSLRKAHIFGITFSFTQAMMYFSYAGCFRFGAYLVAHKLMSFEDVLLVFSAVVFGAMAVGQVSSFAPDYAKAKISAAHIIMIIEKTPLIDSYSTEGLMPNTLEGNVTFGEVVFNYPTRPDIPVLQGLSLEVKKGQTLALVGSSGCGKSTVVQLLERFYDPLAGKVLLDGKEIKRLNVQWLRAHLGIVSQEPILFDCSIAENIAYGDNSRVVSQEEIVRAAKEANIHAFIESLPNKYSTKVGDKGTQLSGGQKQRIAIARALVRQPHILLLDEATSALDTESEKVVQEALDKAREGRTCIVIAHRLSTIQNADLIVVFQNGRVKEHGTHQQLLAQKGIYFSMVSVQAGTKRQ

T1 sequence (P13569 whole entry): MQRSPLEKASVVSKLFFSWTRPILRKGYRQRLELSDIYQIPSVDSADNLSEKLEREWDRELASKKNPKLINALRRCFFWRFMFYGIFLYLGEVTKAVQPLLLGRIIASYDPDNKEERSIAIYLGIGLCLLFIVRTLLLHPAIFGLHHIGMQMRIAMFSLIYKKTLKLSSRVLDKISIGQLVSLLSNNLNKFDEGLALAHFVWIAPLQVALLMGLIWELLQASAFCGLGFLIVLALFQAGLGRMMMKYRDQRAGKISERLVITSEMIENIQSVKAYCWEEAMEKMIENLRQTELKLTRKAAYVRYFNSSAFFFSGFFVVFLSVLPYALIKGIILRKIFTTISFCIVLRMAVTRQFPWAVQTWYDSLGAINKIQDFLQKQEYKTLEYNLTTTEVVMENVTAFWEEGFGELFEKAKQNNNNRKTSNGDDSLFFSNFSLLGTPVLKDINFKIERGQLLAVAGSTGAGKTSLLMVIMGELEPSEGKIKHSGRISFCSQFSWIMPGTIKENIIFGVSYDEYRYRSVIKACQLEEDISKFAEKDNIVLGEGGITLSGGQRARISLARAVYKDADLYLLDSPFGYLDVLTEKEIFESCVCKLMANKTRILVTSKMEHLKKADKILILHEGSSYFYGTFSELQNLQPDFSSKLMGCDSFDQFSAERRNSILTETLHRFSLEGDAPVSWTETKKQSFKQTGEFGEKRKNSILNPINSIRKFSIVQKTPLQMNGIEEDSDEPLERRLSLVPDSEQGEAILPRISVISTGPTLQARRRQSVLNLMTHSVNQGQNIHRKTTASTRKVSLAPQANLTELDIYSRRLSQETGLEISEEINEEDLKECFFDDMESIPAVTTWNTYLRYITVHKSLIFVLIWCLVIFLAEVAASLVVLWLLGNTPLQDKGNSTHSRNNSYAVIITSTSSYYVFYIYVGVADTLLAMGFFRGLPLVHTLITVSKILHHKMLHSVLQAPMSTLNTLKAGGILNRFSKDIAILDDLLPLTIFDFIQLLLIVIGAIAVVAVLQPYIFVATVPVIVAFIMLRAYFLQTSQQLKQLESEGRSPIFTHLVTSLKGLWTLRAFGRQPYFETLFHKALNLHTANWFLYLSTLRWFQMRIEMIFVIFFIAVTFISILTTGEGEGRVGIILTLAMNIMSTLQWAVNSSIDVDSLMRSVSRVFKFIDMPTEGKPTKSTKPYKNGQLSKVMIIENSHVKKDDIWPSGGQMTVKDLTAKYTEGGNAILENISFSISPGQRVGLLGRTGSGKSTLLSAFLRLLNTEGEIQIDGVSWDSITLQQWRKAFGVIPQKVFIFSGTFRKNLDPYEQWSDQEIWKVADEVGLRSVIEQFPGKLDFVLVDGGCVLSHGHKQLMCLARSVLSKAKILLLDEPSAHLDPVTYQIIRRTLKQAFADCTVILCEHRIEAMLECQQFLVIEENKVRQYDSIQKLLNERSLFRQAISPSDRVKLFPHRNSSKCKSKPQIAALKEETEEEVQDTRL

SMILES | Ki (CFTR [1]) [µM] | also measured
O=C(O)c1ccc(/C=C2\SC(=S)N(c3cccc(C(F)(F)F)c3)C2=O)cc1 [CFTRinh-172] |  | IC50 (CFTR [2]): 0.3 to 3 µM
O=S(=O)(O)c1cc(N=C=S)ccc1C=Cc1ccc(N=C=S)cc1S(=O)(=O)O [DIDS] |  | inhibition of the (CFTR-independent) hyperpolarization produced by low Cl− (CFTR [3]): partial inhibition
O=C(CNc1ccc(Cl)cc1)NN=Cc1cc(Br)c(O)c(Br)c1 [GlyH-114] | 5 | 
O=C(CNc1ccc(Cl)cc1)NN=Cc1cc(Br)c(O)c(Br)c1O [GlyH-115] | 6.7 | 
Cc1ccc(NCC(=O)NN=Cc2cc(Br)c(O)c(Br)c2O)cc1 [GlyH-116] | 10 | 
Cc1ccccc1NCC(=O)NN=Cc1cc(Br)c(O)c(Br)c1O [GlyH-117] | 25 to 50 | 
O=C(CNc1cccc2ccccc12)NN=Cc1ccc(O)c(Br)c1 [GlyH-118] | 25 to 50 | 
O=C(CNc1ccc2ccccc2c1)NN=Cc1ccc(Br)cc1 [GlyH-120] | 25 to 50 | 
O=C(CNc1ccc(Cl)cc1)NN=Cc1ccc(O)cc1O [GlyH-123] | 25 to 50 | 
O=C(CNc1ccc2ccccc2c1)NNC(=O)c1cc(Br)c(O)c(Br)c1 [GlyH-202, 3,5-Dibromo-4-hydroxy-[2-(2-naphthalenamine)aceto] Benzoic Acid Hydrazide] | 22 | % inhibition at 50 μM (CFTR [1]): 57%
COc1ccc(CCN(C)CCCC(C#N)(c2ccc(OC)c(OC)c2)C(C)C)cc1OC (stereo not shown) [verapamil] |  | increase of rhodamine 123 incorporation (MDR-1): greater than fivefold

Second part, led by results:

Ki (CFTR [1]) [µM] | SMILES | also measured
21 | O=C(COc1ccc2ccccc2c1)NN=Cc1cc(Br)c(O)c(Br)c1O [AceH-401] | % inhibition at 50 μM (CFTR [1]): 84%
17 | O=C(COc1ccc2ccccc2c1)NN=Cc1cc(Br)c(O)c(Br)c1 [AceH-402] | % inhibition at 50 μM (CFTR [1]): 86%
20 | COc1c(Br)cc(C=NNC(=O)CNc2ccc3ccccc3c2)c(O)c1Br [GlyH-103] | % inhibition at 50 μM (CFTR [1]): 56%
4.7 | CC(=NNC(=O)CNc1ccc2ccccc2c1)c1cc(Br)c(O)c(Br)c1 [GlyH-109] | 
25 to 50 | O=C(CNc1ccc2cc3ccccc3cc2c1)NN=Cc1cc(Br)c(O)c(Br)c1O [GlyH-124] | 
25 to 50 | O=C(CNc1ccc2cc3ccccc3cc2c1)NN=Cc1cc(Br)c(O)c(Br)c1 [GlyH-125] | 
3 | CC(=NNC(=O)C(=O)Nc1ccc2ccccc2c1)c1cc(Br)c(O)c(Br)c1O [OxaH-112] | 
> 50 | O=C(NN=Cc1cc(Br)c(O)c(Br)c1O)C(=O)Nc1ccc2ccccc2c1 [OxaH-203] | 
> 50 | O=C(NNC(=O)c1cc(Br)c(O)c(Br)c1)C(=O)Nc1ccc2ccccc2c1 [OxaH-204] | 
10 | O=C(NNCc1cc(Br)c(O)c(Br)c1O)C(=O)Nc1ccc2ccccc2c1 [OxaH-303] | % inhibition at 50 μM (CFTR [1]): 70%
12 | O=C(NNCc1cc(Br)c(O)c(Br)c1)C(=O)Nc1ccc2ccccc2c1 [OxaH-304] | % inhibition at 50 μM (CFTR [1]): 78%
